Values quoted from earlier work as cited in patent publication US10653634B1, “Polymeric nanoparticulate formulation to enhance the oral bioavailability of dapoxetine” (King Abdulaziz University, priority 2019, dated 2020).
In brackets after ≈: the same amount, converted by molar mass.

Columns and labels:
[1] = not given; remark: listed apart in the source

bioavailability after oral administration (mean): 42% | bioavailability after oral administration (variability): 15-76% | time to peak plasma concentration after oral administration: 60 to 80 min | pKa [1]: 8.6 | aqueous solubility ([1]; protonated DPX): 68 mg/mL (≈ 223 mM)
Structure (SMILES): CN(C)[C@@H](CCOc1cccc2ccccc12)c1ccccc1 [DPX, (1S)—N,N-dimethyl-3-naphthalen-1-yloxy-1-phenylpropan-1-amine]
